# Experimental data taken from BindingDB's records for patent US20230416245 (Biointervene, 2023).
# Molecular target: T1, Adenosine receptor A3 (Homo sapiens, UniProt P0DMS8)
# T1 sequence (P0DMS8 whole entry): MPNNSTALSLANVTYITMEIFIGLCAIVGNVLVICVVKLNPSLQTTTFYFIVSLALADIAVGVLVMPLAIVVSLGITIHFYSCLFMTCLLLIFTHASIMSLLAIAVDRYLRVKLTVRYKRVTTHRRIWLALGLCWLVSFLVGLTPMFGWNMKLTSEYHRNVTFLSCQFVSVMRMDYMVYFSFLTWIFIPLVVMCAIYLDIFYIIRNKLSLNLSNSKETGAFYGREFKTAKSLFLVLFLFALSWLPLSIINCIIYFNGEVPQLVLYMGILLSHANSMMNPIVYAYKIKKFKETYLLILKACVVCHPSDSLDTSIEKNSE
# Assay: Adenosine Receptor Binding Assay
# Description: Radioligand-binding assays were performed using the adenosine A3 receptor agonist [125I]-AB-MECA and the A1 receptor agonist [3H]CCPA. Binding assays were conducted in a total volume of 100 μL containing a 50 mM Tris, pH 7.4 buffer with or without 10 mM MgCl2, 20 μg membranes and either 0.15 nM [125I]-AB-MECA (for the A3 receptor) or 1 nM [3H]CCPA (for the A1 receptor). Assays were conducted at room temperature for 60 min (A1 receptor) or 120 min (A3 receptor) and terminated by the addition of 2 ml of ice-cold wash buffer (50 mM Tris, pH 7.4 with or without 10 mM MgCl2) and rapid filtration over 0.03% polyethylenimine-treated Whatman GF/C filters using a Brandel cell harvester (Semat International Ltd., St Albans, UK). Filters were then washed three times with 2 ml of ice-cold buffer. The filter-bound radioactivity were counted using a Compugamma counter (LKB Wallac, Turku, Finland). Competition experiments were performed to investigate the ability of reference compounds and embodiments of the invention to inhibit [125I]-AB-MECA binding. Non-specific binding were determined using the respective compound at its highest concentration
smiles,measurement,value
"CCNc1cc(Cl)nc2c1ncn2[C@H]1[C@H](O)[C@H](O)[C@]2(C(=O)NC)C[C@H]12 [US20230416245, Compound 59]",Ki,0.23 nM
